Some results are limits rather than exact numbers.

Experimental findings from patent US11541050B2, “Pyrimidine derivatives for the treatment of viral infections” (JANSSEN SCIENCES IRELAND UC, priority 2011, dated 2023) are described below.

For assay [1], the target named is T1, human TLR7 (wild type sequence) (Homo sapiens, UniProt Q9NYK1).
T1 construct: expressed in transfected cells; host or cells: HEK293
T1 sequence (Q9NYK1 27-1049): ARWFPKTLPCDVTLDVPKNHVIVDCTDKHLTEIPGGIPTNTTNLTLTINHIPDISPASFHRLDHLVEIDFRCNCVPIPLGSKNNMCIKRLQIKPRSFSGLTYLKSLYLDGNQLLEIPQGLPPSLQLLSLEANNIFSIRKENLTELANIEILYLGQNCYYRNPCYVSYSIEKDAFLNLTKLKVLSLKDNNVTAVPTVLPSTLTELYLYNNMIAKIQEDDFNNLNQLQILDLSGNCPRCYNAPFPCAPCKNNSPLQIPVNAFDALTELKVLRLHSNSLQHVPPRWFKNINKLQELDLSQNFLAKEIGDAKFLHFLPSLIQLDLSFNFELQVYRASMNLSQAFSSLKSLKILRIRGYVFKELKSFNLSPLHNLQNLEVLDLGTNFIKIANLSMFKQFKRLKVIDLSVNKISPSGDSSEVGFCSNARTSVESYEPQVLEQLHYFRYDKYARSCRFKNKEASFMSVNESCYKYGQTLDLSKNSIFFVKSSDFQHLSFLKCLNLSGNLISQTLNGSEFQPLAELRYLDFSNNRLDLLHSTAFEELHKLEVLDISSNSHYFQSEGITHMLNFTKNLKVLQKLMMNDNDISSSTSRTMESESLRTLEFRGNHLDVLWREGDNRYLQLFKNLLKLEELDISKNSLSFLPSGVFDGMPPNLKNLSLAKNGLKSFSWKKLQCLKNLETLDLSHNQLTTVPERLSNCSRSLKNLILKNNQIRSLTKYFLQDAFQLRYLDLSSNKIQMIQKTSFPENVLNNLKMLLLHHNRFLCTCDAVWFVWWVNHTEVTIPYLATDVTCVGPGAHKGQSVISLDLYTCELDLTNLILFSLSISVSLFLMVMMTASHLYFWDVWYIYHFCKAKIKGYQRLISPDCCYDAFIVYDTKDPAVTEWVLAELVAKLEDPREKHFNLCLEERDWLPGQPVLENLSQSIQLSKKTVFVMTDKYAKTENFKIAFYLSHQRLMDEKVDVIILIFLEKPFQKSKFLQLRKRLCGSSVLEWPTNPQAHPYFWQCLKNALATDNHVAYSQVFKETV
Kind of assay: TLR7 cellular NFκB-luc reporter assay, wild type TLR7. The class given is cell-based. Also on record: unit not given here. The following applies: lowest effective concentration, wild type TLR7 (compounds 1-73). The procedure, abridged:
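NFκB-driven luciferase in HEK293 transiently expressing TLR7 or TLR8, wild type or mutant lacking part of the second LRR; 6 h compound exposure; lowest effective concentration reported.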
Background: A reporter such as luciferase makes a cellular process visible.

The subject of assay [2] is human TLR7 mutant sequence comprising a deletion in the second leucine-rich repeat. Nature of the assay: TLR7 cellular NFκB-luc reporter assay, mutant TLR7 with deletion in the second leucine-rich repeat. Conditions: lowest effective concentration, TLR7 mutant with deletion in second leucine-rich repeat. It counts as cell-based. Further details: unit not given here. The procedure, abridged: (§1)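 HEK293 cells transiently co-transfected with CMV-driven mutant TLR7 or TLR8 plasmid plus NFκB-luc reporter, cultured 48 h at 37 °C, then exposed to compound for 6 h at 37 °C, 5% CO2. Luciferase luminescence measured; dose-response curves from quadruplicates.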

Assay [3] deals with human TLR8 mutant sequence comprising a deletion in the second leucine-rich repeat. Nature of the assay: TLR8 cellular NFκB-luc reporter assay, mutant TLR8 with deletion in the second leucine-rich repeat. It counts as cell-based. Further details: unit not given here. The following applies: lowest effective concentration, TLR8 mutant with deletion in second leucine-rich repeat. The procedure, abridged:
as §1

Assay [4] deals with HCV replicon in Huh-7 luc/neo cells. Kind of assay: Suppression of HCV replicon replication by conditioned media from compound-treated PBMC. The class given is cell-based, HCV type 1 b. Conditions: Hepatitis C virus, Huh-7; read-out: PBMC-HUH7_EC50. The procedure, abridged:
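Readout is firefly luciferase from an HCV genotype 1b NS3-NS5B bicistronic replicon in Huh-7 cells, measured 24 h after adding conditioned medium. That medium came from overnight culture of compound-treated PBMC (2×10^5/well, human AB serum, at least two donors). Interferon α-2a was the reference.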
A general note: In antiviral work, replicon cells carry a viral genome segment that copies itself.

With `CCCCCOc1cnc(N)nc1NCCCC` [Compound 32], in assay [1], the TLR7-wt_LEC was 10.60. In assay [2], this compound registered a TLR7-dIRR2_LEC of 1.35. Further, the TLR8-dIRR2_LEC in assay [3] came out at 4.43. Further, the EC50 in assay [4] came out at 1.06 µM.
For `CCCCNc1nc(N)ncc1OC` [Compound 4], in that order: 6.71, 1.17, 1.10 and 1.14 µM.
In assay [1], `CCCCCNc1nc(N)ncc1Oc1ccccc1OC` [Compound 38] registered a TLR7-wt_LEC of 21.97. Further, in assay [2], the TLR7-dIRR2_LEC stood at 2.46. The compound further gave a TLR8-dIRR2_LEC in assay [3] of 22.88. Besides, in assay [4], the EC50 is 11.3 µM.
`CCCCNc1nc(N)ncc1Oc1ccccc1OC` [Compound 64]: the TLR7-wt_LEC in assay [1] is 8.47. The same compound returned a TLR7-dIRR2_LEC in assay [2] of 2.03. Besides, the TLR8-dIRR2_LEC in assay [3] came to 7.65. Besides, the EC50 in assay [4] is 4.29 µM.
`CCCCNc1nc(N)ncc1OCC` [Compound 60]: the TLR7-wt_LEC in assay [1] is on record as 5.58. The compound further yielded a TLR7-dIRR2_LEC in assay [2] of 1.38. In assay [3], this compound had a TLR8-dIRR2_LEC of 0.65. In assay [4], the EC50 is 1.91 µM.
The corresponding values for `CCCCCNc1nc(N)ncc1OCC` [Compound 63] are 2.78, 1.79, 1.94 and 2.69 µM.
Compound `CCCCCNc1nc(N)ncc1OC` [Compound 56] showed a TLR7-wt_LEC in assay [1] of 12.02. In addition, the TLR7-dIRR2_LEC in assay [2] is on record as 0.84. This compound came in with a TLR8-dIRR2_LEC in assay [3] of 1.47. Further, the EC50 in assay [4] is 0.8 µM.
The corresponding values for `CCCCNc1nc(N)ncc1OCC(C)C` [Compound 31] are over 24.59, 5.27, 6.46 and 10.4 µM.
For `CCCCNc1nc(N)ncc1OCc1ccc(-c2ccccc2)cc1` [Compound 58], in that order: 6.48, 0.99, 2.17 and 2.99 µM.
The corresponding values for `CCCCCCNc1nc(N)ncc1OCC` [Compound 70] are 15.84, 4.96, over 24.59 and over 23.8 µM.
